The test system of assay [1] is Rattus norvegicus. Nature of the assay: Effect on heart rate in anesthetized Wistar rat assessed as Q-T intervals time at 1 mg/kg, iv after 1 min by electrocardiography. It is filed as functional.
The subject of assay [2] is Rattus norvegicus. Nature of the assay: Effect on heart rate in anesthetized Wistar rat assessed as Q-T intervals time at 1 mg/kg, iv after 15 mins by electrocardiography. It is filed as functional.
Assay [3] concerns Rattus norvegicus. Nature of the assay: Effect on heart rate in anesthetized Wistar rat assessed as heart beats per min at 1 mg/kg, iv after 5 mins by electrocardiography. Format: functional.
The test system of assay [4] is Rattus norvegicus. Nature of the assay: Effect on heart rate in anesthetized Wistar rat assessed as P-Q intervals time at 1 mg/kg, iv after 1 min by electrocardiography. It is filed as functional.
For assay [5], the system named is Rattus norvegicus. Nature of the assay: Effect on heart rate in anesthetized Wistar rat assessed as QRS complex time at 1 mg/kg, iv after 1 min by electrocardiography. Format: functional.
The subject of assay [6] is Rattus norvegicus. Nature of the assay: Effect on heart rate in anesthetized Wistar rat assessed as QRS complex time at 1 mg/kg, iv after 5 mins by electrocardiography. Format: functional.
In assay [7] the test system is Rattus norvegicus. Nature of the assay: Effect on heart rate in anesthetized Wistar rat assessed as heart beats per min at 1 mg/kg, iv after 1 min by electrocardiography. Format: functional.
Assay [8] has as its target T1, Adrenergic receptor alpha-2 (Rattus norvegicus, UniProt P22086+P19328+P22909).
T1 sequence (P22086 whole entry): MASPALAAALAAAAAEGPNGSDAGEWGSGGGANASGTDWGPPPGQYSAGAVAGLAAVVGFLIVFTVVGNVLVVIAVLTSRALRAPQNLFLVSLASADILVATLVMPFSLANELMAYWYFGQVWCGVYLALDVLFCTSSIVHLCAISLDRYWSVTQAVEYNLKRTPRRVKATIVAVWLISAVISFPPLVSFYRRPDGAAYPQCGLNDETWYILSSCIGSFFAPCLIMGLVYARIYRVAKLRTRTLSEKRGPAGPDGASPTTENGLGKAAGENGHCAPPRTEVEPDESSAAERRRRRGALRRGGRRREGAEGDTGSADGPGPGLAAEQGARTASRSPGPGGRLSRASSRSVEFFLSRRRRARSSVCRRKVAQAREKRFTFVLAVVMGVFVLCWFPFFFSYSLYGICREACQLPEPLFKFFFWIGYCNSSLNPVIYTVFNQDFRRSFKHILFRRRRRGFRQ
T1 sequence (P19328 whole entry): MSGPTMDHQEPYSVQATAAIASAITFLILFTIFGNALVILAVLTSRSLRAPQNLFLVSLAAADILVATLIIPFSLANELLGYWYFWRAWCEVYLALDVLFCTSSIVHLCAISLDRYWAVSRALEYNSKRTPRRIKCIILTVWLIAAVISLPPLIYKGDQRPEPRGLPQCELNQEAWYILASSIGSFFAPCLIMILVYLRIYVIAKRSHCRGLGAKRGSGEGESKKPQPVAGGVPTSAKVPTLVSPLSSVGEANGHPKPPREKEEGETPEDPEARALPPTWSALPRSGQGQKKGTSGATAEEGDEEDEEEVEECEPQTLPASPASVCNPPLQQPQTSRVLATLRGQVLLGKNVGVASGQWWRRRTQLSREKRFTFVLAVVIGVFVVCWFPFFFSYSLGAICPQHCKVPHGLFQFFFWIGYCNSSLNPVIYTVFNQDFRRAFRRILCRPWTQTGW
T1 sequence (P22909 whole entry): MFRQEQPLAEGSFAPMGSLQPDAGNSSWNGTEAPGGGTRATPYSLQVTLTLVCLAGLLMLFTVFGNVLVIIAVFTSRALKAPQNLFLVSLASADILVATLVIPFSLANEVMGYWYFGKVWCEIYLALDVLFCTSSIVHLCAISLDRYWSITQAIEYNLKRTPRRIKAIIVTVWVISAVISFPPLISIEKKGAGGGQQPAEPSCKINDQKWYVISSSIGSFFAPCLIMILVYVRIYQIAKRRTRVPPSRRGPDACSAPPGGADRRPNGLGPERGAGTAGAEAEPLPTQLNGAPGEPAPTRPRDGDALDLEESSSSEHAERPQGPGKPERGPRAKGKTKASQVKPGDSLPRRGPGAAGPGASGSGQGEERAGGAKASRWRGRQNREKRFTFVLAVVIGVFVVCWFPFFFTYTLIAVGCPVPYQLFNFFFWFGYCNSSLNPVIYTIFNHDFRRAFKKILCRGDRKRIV
Nature of the assay: Displacement of [3H]Clonidine from alpha2 adrenergic receptor in Wistar rat cerebral cortex membrane by liquid scintillation counting. It is filed as tissue-based. A general note: Loss of bound radioactivity is the signal in a displacement assay; it reports binding, not function.

Assay [9] can be described thus: Displacement of [3H]CGP12177 from beta-1 adrenergic receptor in Wistar rat cerebral cortex membrane by liquid scintillation counting. Format: tissue-based.
Assay [10] concerns Rattus norvegicus. Nature of the assay: Effect on heart rate in anesthetized Wistar rat assessed as P-Q intervals time at 1 mg/kg, iv after 5 mins by electrocardiography. It is filed as functional.
Assay [11] relates to Rattus norvegicus. Nature of the assay: Effect on heart rate in anesthetized Wistar rat assessed as heart beats per min at 1 mg/kg, iv after 15 mins by electrocardiography. It is filed as functional.
For assay [12], the system named is Rattus norvegicus. Nature of the assay: Effect on heart rate in anesthetized Wistar rat assessed as P-Q intervals time at 1 mg/kg, iv after 15 mins by electrocardiography. Format: functional.
The subject of assay [13] is Rattus norvegicus. Nature of the assay: Effect on heart rate in anesthetized Wistar rat assessed as QRS complex time at 1 mg/kg, iv after 15 mins by electrocardiography. Format: functional.
Assay [14] has as its system Rattus norvegicus. Nature of the assay: Effect on heart rate in anesthetized Wistar rat assessed as Q-T intervals time at 1 mg/kg, iv after 5 mins by electrocardiography. It is filed as functional.
Assay [15] has as its system Rattus norvegicus. Nature of the assay: Antiarrhythmic activity in Wistar rat assessed as inhibition of adrenaline-induced premature ventricular beats at 1 mg/kg, iv administered 15 mins before adrenaline challenge measured after 15 mins by electrocardiography. It is filed as functional. The conditions noted are these: Heart.

As usually defined, the Ki is a dissociation constant, usually derived from enzyme kinetics or from competition with a known ligand. Low readings indicate higher affinity, high ones lower affinity. As a reminder, the ED50 is the midpoint of the dose-response relation. Turning to `COc1ccccc1OCCNC[C@@H](O)COc1ccc(OC)c2[nH]ccc12`, the Activity is recorded as 89.2 ms in the assay on Rattus norvegicus [1]; 81.7 ms with Rattus norvegicus [2]; 259 bpm with Rattus norvegicus [3]; 58.5 ms in the assay with Rattus norvegicus [4]; 22.7 ms in the assay on Rattus norvegicus [5]; 23.3 ms in the assay on Rattus norvegicus [6]. Further, the Activity is on record as 267.4 bpm in the assay with Rattus norvegicus [7]; 59.7 ms in the assay with Rattus norvegicus [10]; 255.2 bpm in the assay with Rattus norvegicus [11]; 58 ms in the assay on Rattus norvegicus [12]; 24.5 ms in the assay with Rattus norvegicus [13]; 88 ms in the assay with Rattus norvegicus [14]. Moreover, the Ki in [8] came out at 0.1088 µM; in assay [9], 0.531 µM. Also, in the assay with Rattus norvegicus [15], the ED50 worked out at 0.38 mg/kg.

Regarding `COc1ccccc1OCCNC[C@H](O)COc1ccc(OC)c2[nH]ccc12`, the Activity in the assay on Rattus norvegicus [1] is given as 78.8 ms; with Rattus norvegicus [2] it was 83 ms; in the assay on Rattus norvegicus [3], 292.3 bpm; in the assay with Rattus norvegicus [4], 58.5 ms; in the assay with Rattus norvegicus [5], 25 ms; in the assay with Rattus norvegicus [6] it was 24.5 ms. The Activity in the assay on Rattus norvegicus [7] is recorded as 292 bpm; with Rattus norvegicus [10], 56.7 ms; with Rattus norvegicus [11], 275.9 bpm; in the assay on Rattus norvegicus [12], 53.3 ms; in the assay with Rattus norvegicus [13], 22.5 ms; in the assay with Rattus norvegicus [14], 94.8 ms. Further, the Ki in assay [8] came to 0.2772 µM; in assay [9], 0.0593 µM. In addition, the ED50 in the assay on Rattus norvegicus [15] was determined as 0.53 mg/kg.

Turning to `COc1ccccc1OCCNCC(O)COc1c(OC)ccc2[nH]ccc12` (racemic), the Activity stood at 111.4 ms with Rattus norvegicus [1]; 118 ms in the assay on Rattus norvegicus [2]; 372.9 bpm with Rattus norvegicus [3]; 48.7 ms in the assay with Rattus norvegicus [4]; 31.3 ms with Rattus norvegicus [5]; 27.3 ms with Rattus norvegicus [6]. In addition, the Activity is 376.3 bpm with Rattus norvegicus [7]; 51.3 ms in the assay with Rattus norvegicus [10]; 364.7 bpm in the assay with Rattus norvegicus [11]; 48 ms in the assay with Rattus norvegicus [12]; 26 ms in the assay on Rattus norvegicus [13]; 107.3 ms in the assay on Rattus norvegicus [14]. Also, the Ki stood at 0.0569 µM in assay [8] and 1.6 µM in assay [9]. In addition, in the assay on Rattus norvegicus [15], the ED50 turned out to be 0.38 mg/kg.

In the case of `COc1ccccc1OCCNC[C@@H](O)COc1c(OC)ccc2[nH]ccc12`, the Activity in the assay on Rattus norvegicus [1] is 106.7 ms; in the assay on Rattus norvegicus [2], 113.3 ms; with Rattus norvegicus [3], 403.2 bpm; in the assay on Rattus norvegicus [4] it was 45.3 ms; in the assay with Rattus norvegicus [5], 28 ms; with Rattus norvegicus [6], 28.7 ms. Besides, the Activity in the assay with Rattus norvegicus [7] was found to be 395.5 bpm; in the assay on Rattus norvegicus [10] it was 42.7 ms; in the assay on Rattus norvegicus [11] it was 387 bpm; in the assay with Rattus norvegicus [12], 42 ms; with Rattus norvegicus [13], 28.7 ms; with Rattus norvegicus [14], 106 ms. In addition, the Ki amounted to 0.043 µM in assay [8] and 3.4 µM in [9]. Further, the median effective dose (ED50) in the assay on Rattus norvegicus [15] amounted to 0.16 mg/kg.

Consider `COc1ccccc1OCCNC[C@H](O)COc1c(OC)ccc2[nH]ccc12`, for which the Activity in the assay with Rattus norvegicus [1] was determined as 107.3 ms; in the assay on Rattus norvegicus [2] it was 118 ms; with Rattus norvegicus [3], 381 bpm; in the assay on Rattus norvegicus [4], 48.7 ms; in the assay on Rattus norvegicus [5], 26 ms; in the assay on Rattus norvegicus [6] it was 28.7 ms. The Activity with Rattus norvegicus [7] came out at 388.1 bpm; with Rattus norvegicus [10], 46 ms; in the assay on Rattus norvegicus [11] it was 367.6 bpm; in the assay with Rattus norvegicus [12] it was 46 ms; in the assay with Rattus norvegicus [13], 28 ms; with Rattus norvegicus [14], 111.3 ms. The Ki in assay [8] came out at 0.0609 µM; in assay [9], 0.887 µM. Further, the ED50 with Rattus norvegicus [15] is 0.3 mg/kg.

In the case of `COc1ccccc1OCCNCC(O)COc1ccc(OC)c2[nH]ccc12` (racemic), the Activity turned out to be 87.1 ms in the assay on Rattus norvegicus [1]; 79.2 ms with Rattus norvegicus [2]; 292.2 bpm in the assay on Rattus norvegicus [3]; 58.8 ms in the assay on Rattus norvegicus [4]; 24.2 ms in the assay with Rattus norvegicus [5]; 23 ms in the assay on Rattus norvegicus [6]. Also, the Activity with Rattus norvegicus [7] was determined as 297.3 bpm; with Rattus norvegicus [10] it was 59.4 ms; with Rattus norvegicus [11] it was 300 bpm; in the assay with Rattus norvegicus [12] it was 57.3 ms; in the assay with Rattus norvegicus [13] it was 22.7 ms; with Rattus norvegicus [14] it was 79.2 ms. The Ki in assay [8] is 0.1808 µM; in [9] it was 0.125 µM. Besides, the ED50 with Rattus norvegicus [15] turned out to be 0.45 mg/kg.

Values taken from ChEMBL document CHEMBL1154779, “Synthesis and adrenolytic activity of 1-(1H-indol-4-yloxy)-3-(2-(2-methoxy phenoxy)ethylamino)propan-2-ol analogs and its enantiomers. Part 2” (Eur J Med Chem, 2009).
